Drawing on PubChem BioAssay AID1259407 (Chemical Carcinogenesis Research Information System (CCRIS), 2018), this text covers mutagenic call for 3 molecules.

Calls of active or inactive are those of the source. No rule for the calls is given here.

The subject of this series is CCRIS mutagenicity, Ames/micronucleus/aberration tests. As to the kind of experiment: CCRIS mutagenicity studies.
The mark [1] stands for this setting: Test System: AMES SALMONELLA TYPHIMURIUM, Strain/Indicator: TA98, Metabolic Activation: NONE, Method: PREINCUBATION

As to `CCCCCCOC(=O)c1ccccc1C(=O)OCCCCCC`, the mutagenic call is “inactive; negative” (Test System: AMES SALMONELLA TYPHIMURIUM, Strain/Indicator: TA98, Metabolic Activation: HAMSTER, LIVER, S-9, AROCLOR 1254 (10%), Method: PREINCUBATION); “inactive; negative” under setting [1]; “inactive; negative” (Test System: AMES SALMONELLA TYPHIMURIUM, Strain/Indicator: TA98, Metabolic Activation: RAT, LIVER, S-9, AROCLOR 1254 (10%), Method: PREINCUBATION); “inactive; negative” (Test System: AMES SALMONELLA TYPHIMURIUM, Strain/Indicator: TA100, Metabolic Activation: HAMSTER, LIVER, S-9, AROCLOR 1254 (10%), Method: PREINCUBATION); “inactive; negative” (Test System: AMES SALMONELLA TYPHIMURIUM, Strain/Indicator: TA100, Metabolic Activation: NONE, Method: PREINCUBATION); “inactive; negative” (Test System: AMES SALMONELLA TYPHIMURIUM, Strain/Indicator: TA100, Metabolic Activation: RAT, LIVER, S-9, AROCLOR 1254 (10%), Method: PREINCUBATION). Besides, the mutagenic call by setting is: (Test System: AMES SALMONELLA TYPHIMURIUM, Strain/Indicator: TA1535, Metabolic Activation: HAMSTER, LIVER, S-9, AROCLOR 1254 (10%), Method: PREINCUBATION) “inactive; negative”; (Test System: AMES SALMONELLA TYPHIMURIUM, Strain/Indicator: TA1535, Metabolic Activation: NONE, Method: PREINCUBATION) “inactive; negative”; (Test System: AMES SALMONELLA TYPHIMURIUM, Strain/Indicator: TA1535, Metabolic Activation: RAT, LIVER, S-9, AROCLOR 1254 (10%), Method: PREINCUBATION) “inactive; negative”; (Test System: AMES SALMONELLA TYPHIMURIUM, Strain/Indicator: TA1537, Metabolic Activation: HAMSTER, LIVER, S-9, AROCLOR 1254 (10%), Method: PREINCUBATION) “inactive; negative”; (Test System: AMES SALMONELLA TYPHIMURIUM, Strain/Indicator: TA1537, Metabolic Activation: NONE, Method: PREINCUBATION) “inactive; negative”; (Test System: AMES SALMONELLA TYPHIMURIUM, Strain/Indicator: TA1537, Metabolic Activation: RAT, LIVER, S-9, AROCLOR 1254 (10%), Method: PREINCUBATION) “inactive; negative”.
Regarding `CC(=O)Nc1ccc(C(=O)CCl)cc1`, the mutagenic call is “active; positive” (Test System: AMES SALMONELLA TYPHIMURIUM, Strain/Indicator: TA98, Metabolic Activation: HAMSTER, LIVER, S-9, AROCLOR 1254, Method: STANDARD PLATE); “active; positive” (Test System: AMES SALMONELLA TYPHIMURIUM, Strain/Indicator: TA98, Metabolic Activation: HAMSTER, LIVER, S-9, Method: STANDARD PLATE); “inactive; negative” (Test System: AMES SALMONELLA TYPHIMURIUM, Strain/Indicator: TA98, Metabolic Activation: MOUSE, LIVER, S-9, Method: STANDARD PLATE); “active; positive” (Test System: AMES SALMONELLA TYPHIMURIUM, Strain/Indicator: TA98, Metabolic Activation: NONE); “inactive; negative” (Test System: AMES SALMONELLA TYPHIMURIUM, Strain/Indicator: TA98, Metabolic Activation: RAT, LIVER, S-9, AROCLOR 1254, Method: STANDARD PLATE); “active; positive” (Test System: AMES SALMONELLA TYPHIMURIUM, Strain/Indicator: TA98, Metabolic Activation: RAT, LIVER, S-9, PHENOBARBITONE AND BETA-NAPHTHOFLAVONE). Also, the mutagenic call runs as follows: (Test System: AMES SALMONELLA TYPHIMURIUM, Strain/Indicator: TA98, Metabolic Activation: RAT, LIVER, S-9, Method: STANDARD PLATE) “inactive; negative”; (Test System: AMES SALMONELLA TYPHIMURIUM, Strain/Indicator: TA100, Metabolic Activation: HAMSTER, LIVER, S-9, AROCLOR 1254, Method: STANDARD PLATE) “inactive; negative”; (Test System: AMES SALMONELLA TYPHIMURIUM, Strain/Indicator: TA100, Metabolic Activation: HAMSTER, LIVER, S-9, Method: STANDARD PLATE) “inactive; negative”; (Test System: AMES SALMONELLA TYPHIMURIUM, Strain/Indicator: TA100, Metabolic Activation: MOUSE, LIVER, S-9, AROCLOR 1254, Method: STANDARD PLATE) “inactive; negative”; (Test System: AMES SALMONELLA TYPHIMURIUM, Strain/Indicator: TA100, Metabolic Activation: MOUSE, LIVER, S-9, Method: STANDARD PLATE) “inactive; negative”; (Test System: AMES SALMONELLA TYPHIMURIUM, Strain/Indicator: TA100, Metabolic Activation: NONE) “inactive; negative”. Moreover, the mutagenic call is “inactive; negative” (Test System: AMES SALMONELLA TYPHIMURIUM, Strain/Indicator: TA100, Metabolic Activation: NONE, Method: STANDARD PLATE); “inactive; negative” (Test System: AMES SALMONELLA TYPHIMURIUM, Strain/Indicator: TA100, Metabolic Activation: RAT, LIVER, S-9, AROCLOR 1254, Method: STANDARD PLATE); “inactive; negative” (Test System: AMES SALMONELLA TYPHIMURIUM, Strain/Indicator: TA100, Metabolic Activation: RAT, LIVER, S-9, PHENOBARBITONE AND BETA-NAPHTHOFLAVONE); “inactive; negative” (Test System: AMES SALMONELLA TYPHIMURIUM, Strain/Indicator: TA100, Metabolic Activation: RAT, LIVER, S-9, Method: STANDARD PLATE); “inactive; negative” (Test System: AMES SALMONELLA TYPHIMURIUM, Strain/Indicator: TA1535, Metabolic Activation: HAMSTER, LIVER, S-9, AROCLOR 1254, Method: STANDARD PLATE); “inactive; negative” (Test System: AMES SALMONELLA TYPHIMURIUM, Strain/Indicator: TA1535, Metabolic Activation: HAMSTER, LIVER, S-9, Method: STANDARD PLATE). Moreover, the mutagenic call by setting is: (Test System: AMES SALMONELLA TYPHIMURIUM, Strain/Indicator: TA1535, Metabolic Activation: MOUSE, LIVER, S-9, AROCLOR 1254, Method: STANDARD PLATE) “inactive; negative”; (Test System: AMES SALMONELLA TYPHIMURIUM, Strain/Indicator: TA1535, Metabolic Activation: MOUSE, LIVER, S-9, Method: STANDARD PLATE) “inactive; negative”; (Test System: AMES SALMONELLA TYPHIMURIUM, Strain/Indicator: TA1535, Metabolic Activation: NONE, Method: STANDARD PLATE) “inactive; negative”; (Test System: AMES SALMONELLA TYPHIMURIUM, Strain/Indicator: TA1535, Metabolic Activation: RAT, LIVER, S-9, AROCLOR 1254, Method: STANDARD PLATE) “inactive; negative”; (Test System: AMES SALMONELLA TYPHIMURIUM, Strain/Indicator: TA1535, Metabolic Activation: RAT, LIVER, S-9, Method: STANDARD PLATE) “inactive; negative”; (Test System: AMES SALMONELLA TYPHIMURIUM, Strain/Indicator: TA1537, Metabolic Activation: HAMSTER, LIVER, S-9, Method: STANDARD PLATE) “inactive; negative”. The mutagenic call is, setting by setting: (Test System: AMES SALMONELLA TYPHIMURIUM, Strain/Indicator: TA1537, Metabolic Activation: MOUSE, LIVER, S-9, Method: STANDARD PLATE) “inactive; negative”; (Test System: AMES SALMONELLA TYPHIMURIUM, Strain/Indicator: TA1538, Metabolic Activation: NONE) “inactive; negative”; (Test System: AMES SALMONELLA TYPHIMURIUM, Strain/Indicator: TA1538, Metabolic Activation: RAT, LIVER, S-9, AROCLOR 1254, Method: STANDARD PLATE) “inactive; negative”; (Test System: AMES SALMONELLA TYPHIMURIUM, Strain/Indicator: TA1538, Metabolic Activation: RAT, LIVER, S-9, PHENOBARBITONE AND BETA-NAPHTHOFLAVONE) “active; positive”; (Test System: AMES SALMONELLA TYPHIMURIUM, Strain/Indicator: TA1538, Metabolic Activation: RAT, LIVER, S-9, Method: STANDARD PLATE) “inactive; negative”; (Test System: E. COLI, Strain/Indicator: WP2 UVRA, Metabolic Activation: HAMSTER, LIVER, S-9, AROCLOR 1254, Method: STANDARD PLATE) “inactive; negative”. Also, the mutagenic call was “inactive; negative” (Test System: E. COLI, Strain/Indicator: WP2 UVRA, Metabolic Activation: HAMSTER, LIVER, S-9, Method: STANDARD PLATE); “inactive; negative” (Test System: E. COLI, Strain/Indicator: WP2 UVRA, Metabolic Activation: MOUSE, LIVER, S-9, Method: STANDARD PLATE); “inactive; negative” (Test System: E. COLI, Strain/Indicator: WP2 UVRA, Metabolic Activation: NONE, Method: STANDARD PLATE); “inactive; negative” (Test System: E. COLI, Strain/Indicator: WP2 UVRA, Metabolic Activation: RAT, LIVER, S-9, AROCLOR 1254, Method: STANDARD PLATE); “inactive; negative” (Test System: E. COLI, Strain/Indicator: WP2 UVRA, Metabolic Activation: RAT, LIVER, S-9, Method: STANDARD PLATE).
On to `CC(C)(C)OC(=O)C=Cc1ccc([N+](=O)[O-])o1`, for which, under setting [1], the mutagenic call is “active; positive”.
